Data as given in PMC10714400, “Antimicrobial Peptide–Peptoid Hybrids with and without Membrane Disruption” (ACS Infectious Diseases, 2023).
Values after ≈ are worked out from the molar mass of the structure shown. Like-named read-outs stand apart in the source and are kept apart here. Where a SMILES comes first, the peptide text is derived from it. [ ]: non-standard residue; d: D form. Nleu = CC(C)CNCC(=O)O; Nlys = NCCCCNCC(=O)O

Key:
S. maltophilia = conditions: pH 7.4
How it was run: (§1)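 MTT added (20–30 min, room temperature); MIC read by eye as lowest concentration inhibiting visible growth (yellow). Polymyxin B positive control from 16 μg/mL.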

S. aureus Newman = conditions: Newman
How it was run: as §1

B. cenocepacia = conditions: pH 7.4
How it was run: as §1

P. aeruginosa PA14 = test system: P. aeruginosa PA14
How it was run: as §1

S. epidermis = conditions: pH 7.4
How it was run: as §1

HEK293 cells = assay: Cell viability assay by Alamar blue; conditions: read-out: Toxicity on HEK293 cells; CSV
Experimental: The data are represented as the mean value ± SD, n = 3. […] (c) Vesicle leakage assay for a selection of compounds. Lipid vesicles made of EYPG or EYPC were suspended in a buffer (10 mM TRIS, 107 mM NaCl, pH 7.4). After 45 s, the indicated compound was added to reach the desired concentration. After 240 s, 30 μL of 1.2% TritonX-100 was added for full fluorescein release. […] See Supporting Information for the full curves, all of the data, and procedures.
HEK293 cells were cultured and maintained in DMEM high glucose (Dulbecco’s modified Eagle medium, Sigma Aldrich) medium supplemented with 10% FBS (Sigma Aldrich) and 1% penicillin/streptomycin. A549 cells were cultured and maintained in RPMI-1640 medium (Sigma Aldrich), supplemented with 10% FBS (Sigma Aldrich) and 1% penicillin/streptomycin. The cells were handled and subcultured according to the manufacturer instructions. Cells were incubated in a humidified incubator at 37 °C in the presence of 5% CO2.
Assays on HEK293, A549 cells were performed as described earlier.[74] […]

[1] = test system: human red blood cells (hRBC); assay: Minimum hemolytic concentration (MHC); format: cell-based
Description: We also measured minimal hemolysis concentrations (MHC) on human red blood cells by serial 2-fold dilution as an indication of toxicity against eukaryotic cells (Table 1).

E. cloacae = conditions: pH 7.4
How it was run: as §1

PA14 4.18 (pmrB) = test system: PA14 4.18 (pmrB)
How it was run: as §1

PA14 2P4 (pmrB) = test system: PA14 2P4 (pmrB)
How it was run: as §1

K. pneumoniae OXA-48 = test system: K. pneumoniae OXA-48
How it was run: as §1

E. coli W3110 = test system: E. coli W3110
How it was run: as §1

P. aeruginosa PAO1 = test system: P. aeruginosa PAO1
How it was run: as §1

PA14 4.13 (phoQ) = test system: PA14 4.13 (phoQ)
How it was run: as §1

[2] = test system: ZEM-1A (clinical MDR P. aeruginosa isolate)
How it was run: as §1

[3] = Circular dichroism, α-helical content; format: physicochemical; conditions: 0.1 mg/mL; for CD %α with 5 mM DPC: 10 mM phosphate buffer pH 7.4, 5 mM DPC; for CD %α with 20% TFE: 10 mM phosphate buffer pH 7.4, 20% TFE

CC(C)C[C@H](NC(=O)[C@H](CCCCN)NC(=O)CNCCCCN)C(=O)N[C@@H](CC(C)C)C(=O)N[C@@H](CCCCN)C(=O)N[C@@H](CC(C)C)C(=O)N[C@@H](CC(C)C)C(=O)N[C@@H](CCCCN)C(=O)N[C@@H](CC(C)C)C(=O)N[C@@H](CC(C)C)C(=O)N(CC(N)=O)CC(C)C [EB1] (H-[Nlys]KLLKLLKLL[Nleu]-NH2; N-terminus assumed)
MIC S. maltophilia, full MH at pH 7.4 (S. maltophilia; 4 h): 3 ug/mL | MIC S. maltophilia (S. maltophilia): 2 to 4 µg/mL | MIC S. aureus Newman, full MH at pH 7.4 (S. aureus Newman; 4 h, pH 7.4): 32 ug/mL | MIC S. aureus Newman (S. aureus Newman; 4 h, pH 8.5): 2 µg/mL (≈ 1.51 µM) | MIC S. aureus Newman (S. aureus Newman; pH 7.4): 32 µg/mL (≈ 24.2 µM) | MIC B. cenocepacia, full MH at pH 7.4 (B. cenocepacia; 4 h): >32 ug/mL | MIC B. cenocepacia (B. cenocepacia): >32 µg/mL | MIC P. aeruginosa PA14, full MH at pH 7.4 (P. aeruginosa PA14; PA14, 4 h, pH 7.4): 4 ug/mL | MIC P. aeruginosa PA14 (P. aeruginosa PA14; PA14, pH 7.4): 4 µg/mL (≈ 3.03 µM) | MIC P. aeruginosa PA14 (P. aeruginosa PA14; PA14, pH 8.5): 2 µg/mL (≈ 1.51 µM) | MIC S. epidermis, full MH at pH 7.4 (S. epidermis; 4 h): 6 ug/mL | MIC S. epidermis (S. epidermis): 4 to 8 µg/mL | IC50 (HEK293 cells): 110 ± 6 µM | MHC [1]: 1000 µg/mL | MHC (hemolysis) ([1]; red cells of human): 250 to 1000 µg/mL | MIC E. cloacae, full MH at pH 7.4 (E. cloacae; 4 h): 8 ug/mL | MIC E. cloacae (E. cloacae): 8 µg/mL (≈ 6.05 µM) | MIC P. aeruginosa PA14 4.18, […] MH at pH 8.5 (PA14 4.18 (pmrB); CSV, […] MH at pH 8.5): 2 ug/mL | MIC P. aeruginosa PA14 4.18, full MH at pH 7.4 (PA14 4.18 (pmrB); CSV, full MH at pH 7.4): 32 ug/mL | MIC PA14 4.18 (pmrB) (PA14 4.18 (pmrB); MH pH 7.4, 16–20 h at 37 °C): 32 µg/mL (≈ 24.2 µM) | MIC P. aeruginosa PA14 4.18 (PA14 4.18 (pmrB); Table S3, […] MH at pH 8.5): 2 µg/mL (≈ 1.51 µM) | MIC P. aeruginosa PA14 2P4, […] MH at pH 8.5 (PA14 2P4 (pmrB); CSV, […] MH at pH 8.5): 2 ug/mL | MIC P. aeruginosa PA14 2P4, full MH at pH 7.4 (PA14 2P4 (pmrB); CSV, full MH at pH 7.4): 32 ug/mL | MIC PA14 2P4 (pmrB) (PA14 2P4 (pmrB); MH pH 7.4, 16–20 h at 37 °C): 32 µg/mL (≈ 24.2 µM) | MIC P. aeruginosa PA14 2P4 (PA14 2P4 (pmrB); Table S3, […] MH at pH 8.5): 2 µg/mL (≈ 1.51 µM) | MIC K. pneumoniae OXA-48, full MH at pH 7.4 (K. pneumoniae OXA-48; CSV, full MH at pH 7.4): 12 ug/mL | MIC K. pneumoniae OXA-48 (K. pneumoniae OXA-48; MH pH 7.4, 16–20 h at 37 °C): 8 to 16 µg/mL | MIC E. coli W3110, […] MH at pH 7.4 (E. coli W3110; CSV, […] MH at pH 7.4): 2 ug/mL | MIC E. coli W3110, full MH at pH 7.4 (E. coli W3110; CSV, full MH at pH 7.4): 2 ug/mL | MIC E. coli W3110 […] 7.4 (E. coli W3110; Table S2, […] MH, pH 7.4): 2 µg/mL (≈ 1.51 µM) | MIC E. coli W3110 […] 8.5 (E. coli W3110; Table S2, […] MH, pH 8.5): 1 µg/mL (≈ 0.757 µM) | MIC E. coli W3110 Full MH 7.4 (E. coli W3110; Table S2, full MH, pH 7.4): 2 µg/mL (≈ 1.51 µM) | MIC E. coli W3110 Full MH 8.5 (E. coli W3110; Table S2, full MH, pH 8.5): 32 µg/mL (≈ 24.2 µM) | MIC E. coli W3110 […] (E. coli W3110; diluted MH ([…] MH, pH 8.5) per Table 1 footnote b, 16–20 h at 37 °C): 2 µg/mL (≈ 1.51 µM) | MIC P. aeruginosa PAO1, full MH at pH 7.4 (P. aeruginosa PAO1; PAO1, 4 h, pH 7.4): 4 ug/mL | MIC P. aeruginosa PAO1 […] 7.4 (P. aeruginosa PAO1; Table S2, […] MH, pH 7.4): 2 µg/mL (≈ 1.51 µM) | MIC P. aeruginosa PAO1 […] 8.5 (P. aeruginosa PAO1; Table S2, […] MH, pH 8.5): 2 µg/mL (≈ 1.51 µM) | MIC P. aeruginosa PAO1 Full MH 7.4 (P. aeruginosa PAO1; Table S2, full MH, pH 7.4): 4 µg/mL (≈ 3.03 µM) | MIC P. aeruginosa PAO1 Full MH 8.5 (P. aeruginosa PAO1; Table S2, full MH, pH 8.5): 16 µg/mL (≈ 12.1 µM) | MIC P. aeruginosa PA14 4.13, […] MH at pH 8.5 (PA14 4.13 (phoQ); CSV, […] MH at pH 8.5): 2 ug/mL | MIC P. aeruginosa PA14 4.13, full MH at pH 7.4 (PA14 4.13 (phoQ); CSV, full MH at pH 7.4): 8 ug/mL | MIC PA14 4.13 (phoQ) (PA14 4.13 (phoQ); MH pH 7.4, 16–20 h at 37 °C): 8 µg/mL (≈ 6.05 µM) | MIC P. aeruginosa PA14 4.13 (PA14 4.13 (phoQ); Table S3, […] MH at pH 8.5): 2 µg/mL (≈ 1.51 µM) | MIC P. aeruginosa ZEM-1A, full MH at pH 7.4 ([2]; CSV, full MH at pH 7.4): 3 ug/mL | MIC ZEM-1A ([2]; MH pH 7.4, 16–20 h at 37 °C): 2 to 4 µg/mL | CD %α with 5 mM DPC ([3]; DichroWeb, Contin-LL): 30% | CD %α with 20% TFE ([3]; DichroWeb, Contin-LL): 26% | CD %α with 5 mM DPC ([3]; Table S2): 30% | CD %α with 20% TFE ([3]; Table S2): 26%
